Where two headings read alike, the source gives them in different places. Positions of bridges follow the written chain, without caps; N, C: chain ends. Non-standard residues stand in square brackets, D forms with d. Residues, ends and D or L forms follow the SMILES beside them. dPhe(4-CN) = N#Cc1ccc(C[C@@H](N)C(=O)O)cc1; dPhe(2-F) = N[C@H](Cc1ccccc1F)C(=O)O; Orn = NCCC[C@H](N)C(=O)O
What was measured:
hMC4-R [1] = target: T1, hMC4-R (Homo sapiens (Human), UniProt P32245); assay: High and low density hMC4-R functional assay (cAMP, HEK293-T-REx-MC4-R cells); format: cell-based; details: for Emax: NDP-α-MSH = 100%, read-out: Intrinsic Activity (%)
MC1-R = assay: Competitive inhibition binding assay using [I125]-NDP-α-MSH, MC1-R; details: membranes of B-16 mouse melanoma cells (endogenous MC1-R), in some instances HEK-293 hMC1-R
Protocol: 7.1 Competitive Inhibition Assay using [I^125]-NDP-α-MSH.
A competitive inhibition binding assay was performed for exemplified peptides according to the invention using membrane homogenates prepared from HEK-293 cells that express recombinant hMC4-R, hMC3-R, or hMC5-R, and from B-16 mouse melanoma cells (containing endogenous MC1-R). In some instances, HEK-293 cells that express recombinant hMC1-R were employed. Assays were performed in 96 well GF/B Millipore multiscreen filtration plates (MAFB NOB10) pre-coated with 0.5% bovine serum albumin (Fraction V). Membrane homogenates were incubated with 0.2 nM (for hMC4-R) 0.4 nM (for MC3-R and MC5-R) or 0.1 nM (for mouse B16 MC1-R or hMC1-R) [I^125]-NDP-α-MSH (Perkin Elmer) and increasing concentrations of test peptides of the present invention in buffer containing 25 mM HEPES buffer (pH 7.5) with 100 mM NaCl, 2 mM CaCl2, 2 mM MgCl2, 0.3 mM 1,10-phenanthroline, and 0.2% bovine serum albumin. After incubation for 60 minutes at 37° C., the assay mixture was filtered and the membranes washed three times with ice-cold buffer. Filters were dried and counted in a gamma counter for bound radioactivity. […] Maximal specific binding (100%) was defined as the difference in radioactivity (cpm) bound to cell membranes in the absence and presence of 1 μM NDP-α-MSH. […] Each assay was conducted in triplicate and the actual mean values are described, with results less than 0% reported as 0%. Ki values for test peptides of the present invention were determined using Graph-Pad Prism® curve-fitting software.

hMC4-R [2] = target: T1, hMC4-R; assay: Competitive inhibition binding assay using [I125]-NDP-α-MSH, hMC4-R; details: membranes of HEK-293 cells expressing recombinant hMC4-R, read-out: MC4-R Ki
[3] = 0.1 ng/mL Doxycycline (low density hMC4-R system)
[4] = 10 ng/mL Doxycycline (high density hMC4-R system)

T1 sequence (P32245 whole entry): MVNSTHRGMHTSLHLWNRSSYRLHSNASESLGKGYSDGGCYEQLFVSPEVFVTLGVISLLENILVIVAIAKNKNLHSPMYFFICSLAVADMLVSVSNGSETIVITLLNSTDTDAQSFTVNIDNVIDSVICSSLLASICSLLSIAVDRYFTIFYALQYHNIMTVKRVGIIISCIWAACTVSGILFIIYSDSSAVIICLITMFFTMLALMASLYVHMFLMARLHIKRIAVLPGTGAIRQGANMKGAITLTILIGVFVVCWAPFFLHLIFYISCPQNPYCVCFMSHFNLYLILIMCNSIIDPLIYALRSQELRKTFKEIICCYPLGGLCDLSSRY

Structure (SMILES)	Emax (hMC4-R [1]; [3]) [%]	Emax (hMC4-R [1]; [4]) [%]	Ki (MC1-R) [nM]	EC50 (hMC4-R [1]; [3]) [nM]	EC50 (hMC4-R [1]; [4]) [nM]	Ki (hMC4-R [2]) [nM]
CC(=O)N[C@@H](CCCNC(=N)N)C(=O)N[C@H]1CCC(=O)NCCC[C@@H](C(N)=O)NC(=O)[C@H](Cc2c[nH]c3ccccc23)NC(=O)[C@H](CCCNC(=N)N)NC(=O)[C@@H](Cc2ccc(C#N)cc2)NC(=O)[C@H](CC(=O)O)NC1=O [Example 106, Ac-Arg-cyclo(Glu-Asp-D-Phe(4-CN)-Arg-Trp-Orn)-NH2] (Ac-RED[dPhe(4-CN)]RW[Orn]-NH2; lactam 2-7)	3	77	10000	–	–	–
CC(=O)N[C@@H](CCCNC(=N)N)C(=O)N[C@H]1CCC(=O)NCCC[C@@H](C(=O)O)NC(=O)[C@H](Cc2c[nH]c3ccccc23)NC(=O)[C@H](CCCNC(=N)N)NC(=O)[C@@H](Cc2ccc(C#N)cc2)NC(=O)[C@H](CC(=O)O)NC1=O [Example 107, Ac-Arg-cyclo(Glu-Asp-D-Phe(4-CN)-Arg-Trp-Orn)-OH] (Ac-RED[dPhe(4-CN)]RW[Orn]-OH; lactam 2-7)	4	64	10000	–	–	–
CC(=O)N[C@@H](CCCNC(=N)N)C(=O)N[C@H]1CCC(=O)NCCC[C@@H](C(N)=O)NC(=O)[C@H](Cc2c[nH]c3ccccc23)NC(=O)[C@H](CCCNC(=N)N)NC(=O)[C@@H](Cc2ccccc2F)NC(=O)[C@H](CO)NC1=O [Example 58, Ac-Arg-cyclo(Glu-Ser-D-Phe(2-F)-Arg-Trp-Orn)-NH2]	67	100	138	5	0.25	–
CC(=O)N[C@@H](CCCNC(=N)N)C(=O)N[C@H]1CCC(=O)NCCC[C@@H](C(N)=O)NC(=O)[C@H](Cc2c[nH]c3ccccc23)NC(=O)[C@H](CCCNC(=N)N)NC(=O)[C@@H](Cc2ccc(C#N)cc2)NC(=O)[C@H](CCC(=O)O)NC1=O [Example 108, Ac-Arg-cyclo(Glu-Glu-D-Phe(4-CN)-Arg-Trp-Orn)-NH2] (Ac-REE[dPhe(4-CN)]RW[Orn]-NH2; lactam 2-7)	3	59	10000	–	9	–
CC(=O)N[C@@H](CCCNC(=N)N)C(=O)N[C@H]1CCC(=O)NCCC[C@@H](C(=O)O)NC(=O)[C@H](Cc2c[nH]c3ccccc23)NC(=O)[C@H](CCCNC(=N)N)NC(=O)[C@@H](Cc2ccc(C#N)cc2)NC(=O)[C@H](CCC(N)=O)NC1=O [Example 86, Ac-Arg-cyclo(Glu-Gln-D-Phe(4-CN)-Arg-Trp-Orn)-OH]	36	96	3970	9	–	–
CC(=O)N[C@@H](CCCNC(=N)N)C(=O)N[C@H]1CCC(=O)NCCC[C@@H](C(N)=O)NC(=O)[C@H](Cc2c[nH]c3ccccc23)NC(=O)[C@H](CCCNC(=N)N)NC(=O)[C@@H](Cc2ccccc2C)NC(=O)[C@H](CC(N)=O)NC1=O [Example 73, Ac-Arg-cyclo(Glu-Asn-D-Phe(2-Me)-Arg-Trp-Orn)-NH2]	86	102	–	–	–	4
CC(=O)N[C@@H](CCCNC(=N)N)C(=O)N[C@H]1CCC(=O)NCCC[C@@H](C(N)=O)NC(=O)[C@H](Cc2c[nH]c3ccccc23)NC(=O)[C@H](CCCNC(=N)N)NC(=O)[C@@H](Cc2ccccc2C(F)(F)F)NC(=O)[C@H](CC(N)=O)NC1=O [Example 116, Ac-Arg-cyclo(Glu-Asn-D-Phe(2-CF3)-Arg-Trp-Orn)-NH2]	77	104	–	–	0.095	7
CC(=O)N[C@@H](CCCNC(=N)N)C(=O)N[C@H]1CCC(=O)NCCC[C@@H](C(N)=O)NC(=O)[C@H](Cc2c[nH]c3ccccc23)NC(=O)[C@H](CCCNC(=N)N)NC(=O)[C@@H](Cc2cc(F)c(F)c(F)c2)NC(=O)[C@H](CC(N)=O)NC1=O [Example 95, Ac-Arg-cyclo(Glu-Asn-D-Phe(3,4,5-triF)-Arg-Trp-Orn)-NH2]	42	100	–	1	0.125	3
CC(=O)N[C@@H](CCCNC(=N)N)C(=O)N[C@H]1CCC(=O)NCCC[C@@H](C(N)=O)NC(=O)[C@H](Cc2c[nH]c3ccccc23)NC(=O)[C@H](CCCNC(=N)N)NC(=O)[C@@H](Cc2cccc([N+](=O)[O-])c2)NC(=O)[C@H](CCN)NC1=O [Example 23, Ac-Arg-cyclo(Glu-Dab-D-Phe(3-NO2)-Arg-Trp-Orn)-NH2]	17	95	–	2	0.55	0.7
CC(=O)N[C@@H](CCCNC(=N)N)C(=O)N[C@H]1CCC(=O)NCCC[C@@H](C(N)=O)NC(=O)[C@H](Cc2c[nH]c3ccccc23)NC(=O)[C@H](CCCNC(=N)N)NC(=O)[C@@H](Cc2ccccc2C#N)NC(=O)[C@H](CCN)NC1=O [Example 12, Ac-Arg-cyclo(Glu-Dab-D-Phe(2-CN)-Arg-Trp-Orn)-NH2]	64	97	–	34	0.5	45
CC(=O)N[C@@H](CCCNC(=N)N)C(=O)N[C@H]1CCCNC(=O)CC[C@@H](C(N)=O)NC(=O)[C@H](Cc2c[nH]c3ccccc23)NC(=O)[C@H](CCCNC(=N)N)NC(=O)[C@@H](Cc2ccc(F)cc2)NC(=O)[C@H](CC(N)=O)NC1=O [Example 70, Ac-Arg-cyclo(Orn-Asn-D-Phe(4-F)-Arg-Trp-Glu)-NH2]	64	91	–	0.4	0.1	3
CC(=O)N[C@@H](CCCNC(=N)N)C(=O)N[C@H]1CCC(=O)NCCC[C@@H](C(N)=O)NC(=O)[C@H](Cc2c[nH]c3ccccc23)NC(=O)[C@H](CCCNC(=N)N)NC(=O)[C@@H](Cc2ccc(C)cc2C)NC(=O)[C@H](CCN)NC1=O [Example 21, Ac-Arg-cyclo(Glu-Dab-D-Phe(2,4-diMe)-Arg-Trp-Orn)-NH2]	8	97	–	–	0.5	0.085
CC(=O)N[C@@H](CCCNC(=N)N)C(=O)N[C@H]1CCCNC(=O)CC[C@@H](C(N)=O)NC(=O)[C@H](Cc2c[nH]c3ccccc23)NC(=O)[C@H](CCCNC(=N)N)NC(=O)[C@@H](Cc2ccc(C#N)cc2)NC(=O)[C@H](CC(N)=O)NC1=O [Example 91, Ac-Arg-cyclo(Orn-Asn-D-Phe(4-CN)-Arg-Trp-Glu)-NH2]	18	96	–	1	0.265	4
CC(=O)N[C@@H](CCCNC(=N)N)C(=O)N[C@H]1CCC(=O)NCCC[C@@H](C(N)=O)NC(=O)[C@H](Cc2c[nH]c3ccccc23)NC(=O)[C@H](CCCNC(=N)N)NC(=O)[C@@H](Cc2ccccc2F)NC(=O)[C@H](CCC(N)=O)NC1=O [Example 59, Ac-Arg-cyclo(Glu-Gln-D-Phe(2-F)-Arg-Trp-Orn)-NH2]	90	98	–	0.6	0.1	7
CC(=O)N[C@@H](CCCNC(=N)N)C(=O)N[C@H]1CCC(=O)NCCC[C@@H](C(N)=O)NC(=O)[C@H](Cc2c[nH]c3ccccc23)NC(=O)[C@H](CCCNC(=N)N)NC(=O)[C@@H](Cc2ccccc2F)NC(=O)[C@H](CCN)NC1=O [Example 9, Ac-Arg-cyclo(Glu-Dab-D-Phe(2-F)-Arg-Trp-Orn)-NH2]	91	89	–	0.09	0.035	0.7
CC(=O)N[C@@H](CCCNC(=N)N)C(=O)N[C@H]1CCCNC(=O)CC[C@@H](C(N)=O)NC(=O)[C@H](Cc2c[nH]c3ccccc23)NC(=O)[C@H](CCCNC(=N)N)NC(=O)[C@@H](Cc2ccccc2F)NC(=O)[C@@H]2CCCN2C1=O [Example 105, Ac-Arg-cyclo(Orn-Pro-D-Phe(2-F)-Arg-Trp-Glu)-NH2] (Ac-R[Orn]P[dPhe(2-F)]RWE-NH2; lactam 2-7)	35	94	–	3	0.15	7
CC(=O)N[C@@H](CCCNC(=N)N)C(=O)N[C@H]1CCCNC(=O)CC[C@@H](C(N)=O)NC(=O)[C@H](Cc2c[nH]c3ccccc23)NC(=O)[C@H](CCCNC(=N)N)NC(=O)[C@@H](Cc2cc(F)cc(F)c2)NC(=O)[C@H](CC(N)=O)NC1=O [Example 77, Ac-Arg-cyclo(Orn-Asn-D-Phe(3,5-diF)-Arg-Trp-Glu)-NH2]	34	80	–	3	–	8
CC(=O)N[C@@H](CCCNC(=N)N)C(=O)N[C@H]1CCC(=O)NCCC[C@@H](C(N)=O)NC(=O)[C@H](Cc2c[nH]c3ccccc23)NC(=O)[C@H](CCCNC(=N)N)NC(=O)[C@@H](Cc2cc(F)c(F)c(F)c2)NC(=O)[C@H](CCN)NC1=O [Example 27, Ac-Arg-cyclo(Glu-Dab-D-Phe(3,4,5-triF)-Arg-Trp-Orn)-NH2]	37	97	–	0.7	0.33	0.667

From patent publication US9040663B2, “Melanocortin receptor-specific peptides” (AstraZeneca AB, priority 2009, dated 2015)
